Data on 32 compounds can be found in ChEMBL document CHEMBL2007661, “Compounds: GSK PKIS; Assays: UNC Frye lab” (2012).

In assay [1] the target is T1, Inhibitor of nuclear factor kappa-B kinase subunit alpha (Homo sapiens) (UniProt O15111).
T1 sequence (whole entry): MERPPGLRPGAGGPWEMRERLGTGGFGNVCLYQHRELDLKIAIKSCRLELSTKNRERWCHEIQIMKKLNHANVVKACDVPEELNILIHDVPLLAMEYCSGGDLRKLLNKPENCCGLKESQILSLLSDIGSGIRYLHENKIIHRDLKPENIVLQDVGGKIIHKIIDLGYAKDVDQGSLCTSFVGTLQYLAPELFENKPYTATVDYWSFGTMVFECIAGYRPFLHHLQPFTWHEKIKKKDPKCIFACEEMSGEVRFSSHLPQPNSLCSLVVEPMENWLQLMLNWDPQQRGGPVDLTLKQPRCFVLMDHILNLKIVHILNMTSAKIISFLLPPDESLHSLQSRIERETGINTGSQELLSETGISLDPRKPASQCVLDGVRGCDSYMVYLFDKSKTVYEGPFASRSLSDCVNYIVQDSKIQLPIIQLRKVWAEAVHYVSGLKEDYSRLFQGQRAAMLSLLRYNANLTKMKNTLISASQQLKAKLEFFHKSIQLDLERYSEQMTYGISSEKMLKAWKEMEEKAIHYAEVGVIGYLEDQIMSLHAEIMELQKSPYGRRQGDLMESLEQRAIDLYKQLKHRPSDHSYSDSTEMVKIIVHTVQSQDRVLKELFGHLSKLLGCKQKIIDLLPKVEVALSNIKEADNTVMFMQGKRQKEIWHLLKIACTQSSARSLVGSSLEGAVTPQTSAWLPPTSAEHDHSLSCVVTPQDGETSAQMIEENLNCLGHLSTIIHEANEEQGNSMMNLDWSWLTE
The following applies: at 1 µM.

For assay [2], the target named is T2, Inhibitor of nuclear factor kappa-B kinase subunit epsilon (Homo sapiens) (UniProt Q14164).
T2 sequence (whole entry): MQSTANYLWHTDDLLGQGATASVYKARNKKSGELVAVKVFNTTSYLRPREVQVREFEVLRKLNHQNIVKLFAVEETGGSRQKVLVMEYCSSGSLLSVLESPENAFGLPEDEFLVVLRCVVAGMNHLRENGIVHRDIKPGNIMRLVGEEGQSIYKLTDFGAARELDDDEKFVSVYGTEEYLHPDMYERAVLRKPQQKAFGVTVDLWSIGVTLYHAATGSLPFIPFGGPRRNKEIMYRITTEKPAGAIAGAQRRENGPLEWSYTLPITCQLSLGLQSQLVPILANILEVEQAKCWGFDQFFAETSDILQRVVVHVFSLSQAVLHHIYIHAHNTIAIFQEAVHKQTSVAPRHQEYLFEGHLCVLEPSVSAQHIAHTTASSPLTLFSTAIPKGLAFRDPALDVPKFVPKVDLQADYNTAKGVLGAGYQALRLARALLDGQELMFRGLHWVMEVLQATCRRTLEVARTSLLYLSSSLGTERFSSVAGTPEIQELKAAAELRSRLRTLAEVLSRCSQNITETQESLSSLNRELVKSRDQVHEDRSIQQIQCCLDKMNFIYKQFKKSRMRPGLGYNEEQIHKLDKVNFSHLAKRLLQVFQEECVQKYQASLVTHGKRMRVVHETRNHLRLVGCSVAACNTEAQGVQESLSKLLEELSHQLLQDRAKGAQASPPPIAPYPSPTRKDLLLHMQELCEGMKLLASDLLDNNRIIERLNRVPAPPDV
The following applies: at 1 µM.

Assay [3] addresses T3, Tyrosine-protein kinase Mer (Homo sapiens) (UniProt Q12866).
T3 sequence (whole entry): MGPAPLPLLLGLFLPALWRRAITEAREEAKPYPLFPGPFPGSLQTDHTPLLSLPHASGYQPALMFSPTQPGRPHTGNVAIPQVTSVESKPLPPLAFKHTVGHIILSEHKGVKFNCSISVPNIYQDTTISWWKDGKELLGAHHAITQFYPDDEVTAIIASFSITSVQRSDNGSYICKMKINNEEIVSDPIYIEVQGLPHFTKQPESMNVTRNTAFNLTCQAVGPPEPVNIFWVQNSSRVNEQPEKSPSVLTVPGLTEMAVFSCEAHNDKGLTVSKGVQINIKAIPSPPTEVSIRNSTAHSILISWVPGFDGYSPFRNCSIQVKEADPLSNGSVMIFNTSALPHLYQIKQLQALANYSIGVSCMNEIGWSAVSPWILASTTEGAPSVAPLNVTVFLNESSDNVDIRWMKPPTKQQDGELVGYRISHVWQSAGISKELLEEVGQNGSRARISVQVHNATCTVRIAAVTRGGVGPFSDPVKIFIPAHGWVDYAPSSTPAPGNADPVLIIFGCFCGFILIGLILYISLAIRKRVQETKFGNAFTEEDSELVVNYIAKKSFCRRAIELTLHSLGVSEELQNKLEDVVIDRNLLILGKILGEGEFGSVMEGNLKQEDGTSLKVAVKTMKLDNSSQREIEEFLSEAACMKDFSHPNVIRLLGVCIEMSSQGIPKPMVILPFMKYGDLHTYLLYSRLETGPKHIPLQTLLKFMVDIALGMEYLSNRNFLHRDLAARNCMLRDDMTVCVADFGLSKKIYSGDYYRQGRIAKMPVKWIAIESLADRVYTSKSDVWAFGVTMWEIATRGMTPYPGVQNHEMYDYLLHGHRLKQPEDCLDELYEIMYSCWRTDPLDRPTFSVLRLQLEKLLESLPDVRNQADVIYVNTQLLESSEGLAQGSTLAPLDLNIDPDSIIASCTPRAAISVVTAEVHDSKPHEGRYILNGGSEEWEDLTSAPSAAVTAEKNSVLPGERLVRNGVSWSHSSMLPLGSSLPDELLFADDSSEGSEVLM
Conditions: at 10 µM.

“And” between values parts separate entries of the source, which are not always exact repeats. Identical values can stand only once.

What is called inhibition is the drop in the measured response relative to a control, in per cent.

For `O=C(Nc1n[nH]c2nnc(-c3cccnc3)cc12)C1CC1`, the inhibition in assay [1] is 5% and 7%; in assay [2], -1% and 1%; in assay [3], -7%.

As to `CS(=O)(=O)Nc1cccc(-c2ccc3c(NC(=O)C4CC4)n[nH]c3c2)c1`, the inhibition in assay [1] is 4% and 3%; in assay [2], 0%; in assay [3] it was 47%.

Take `OCc1ccc(-c2nc(-c3ccccn3)c(-c3ccc4c(c3)OCO4)[nH]2)cc1`: the inhibition is 14% and 7% in assay [1]; -2% in assay [2]; -6% in assay [3].

On to `CCn1c(-c2nonc2N)nc2c(N3CCCC3)nccc21`, for which the inhibition in assay [1] was 3% and 2%; in assay [2], -3% and -4%; in assay [3], -3%.

As to `O=S(=O)(CCNCc1ccc(-c2ccc3ncnc(Nc4ccc(OCc5cccc(F)c5)c(Cl)c4)c3c2)o1)c1ccccc1`, the inhibition is 4% and 12% in assay [1]; -2% and -1% in assay [2]; 72% in assay [3].

`COc1cc(/C=N/Nc2ncnc3c2cnn3C(C)C)ccc1O`: the inhibition in assay [1] was -3% and 1%; in assay [2] it was 0% and -3%; in assay [3], 2%.

For the compound `NS(=O)(=O)c1ccc(Nc2cc(-c3ccc(O)c(F)c3)n[nH]2)cc1`, the inhibition is 1% and -1% in assay [1]; 4% and 3% in assay [2]; -1% in assay [3].

On to `O=C(Nc1ccc(Oc2ccc3[nH]c(NC(=O)c4ccccc4)nc3c2)cc1)Nc1cc(C(F)(F)F)ccc1F`, for which the inhibition in assay [1] was 11%; in assay [2], 6% and 5%; in assay [3], 78%.

For `COC(=O)Nc1nc2cc(Oc3ccc(NC(=O)Nc4cccc(C(=O)O)c4)cc3)ccc2[nH]1`, the inhibition in assay [1] was 2% and 4%; in assay [2], 0% and -2%; in assay [3], 94%.

For `CCN1CCC(CC(=O)Nc2n[nH]c3nc(-c4cccs4)c(Br)cc23)CC1`, the inhibition is -9% and 5% in assay [1]; 2% and 1% in assay [2]; -2% in assay [3].

As for `Nc1ncnc2occ(-c3ccc(NC(=O)Nc4cccc(C(F)(F)F)c4)cc3)c12`, the inhibition was 3% in assay [1]; 19% and 16% in assay [2]; 43% in assay [3].

Turning to `COc1cc(Nc2ncc3c(C)nc(-c4cccc(C(F)(F)F)c4)n3n2)cc(OC)c1OC`, the inhibition in assay [1] was 4% and 2%; in assay [2], 29% and 33%; in assay [3] it was 6%.

In the case of `COc1cc(C)c(NC(=O)CN(C)C)cc1Nc1nc(Nc2cccc(F)c2C(N)=O)c2cc[nH]c2n1`, the inhibition in assay [1] is 2% and 3%; in assay [2], 9% and 8%; in assay [3], 52%.

As for `COc1cc(C=NNc2ncnc3c2cnn3-c2ccccc2)ccc1O`, the inhibition in assay [1] is 12% and 15%; in assay [2], 13% and 11%; in assay [3] it was 0%.

On to `CN1CCC(C(=O)Nc2n[nH]c3nnc(-c4ccccc4)cc23)CC1`, for which the inhibition is 3% in assay [1], -3% in assay [2] and 1% in assay [3].

`CS(=O)(=O)CCNCc1nc(-c2ccc3ncnc(Nc4ccc(OCc5cccc(C(F)(F)F)c5)cc4)c3c2)cs1`: the inhibition is -9% and 5% in assay [1]; 0% in assay [2]; -6% in assay [3].

For the compound `Cc1nc(-c2ccccc2)n2nc(NCCCN3CCOCC3)ncc12`, the inhibition in assay [1] was 1%; in assay [2], 3% and 4%; in assay [3], 39%.

Take `O=C(Nc1ccc(Oc2ccc3[nH]c(NC(=O)c4ccco4)nc3c2)cc1)Nc1cc(C(F)(F)F)ccc1F`: the inhibition in assay [1] was -1%; in assay [2] it was 1% and 0%; in assay [3], 27%.

On to `CN(C)CCCNc1nccc(-c2c(-c3ccc(F)cc3)nn3cc(C(F)(F)F)ccc23)n1`, for which the inhibition in assay [1] was 2% and 3%; in assay [2], -1% and 0%; in assay [3], 0%.

For `Nc1nonc1-c1nc2cnccc2n1C1CC1`, the inhibition was 29% and 33% in assay [1]; 11% and 21% in assay [2]; 48% in assay [3].

As for `Nc1nc(-c2ccccn2)c(-c2ccc3ncccc3n2)s1`, the inhibition in assay [1] is 5%; in assay [2] it was 0% and -2%; in assay [3], -5%.

Regarding `Cc1ccc2c(-c3ccnc(Nc4ccccc4)n3)c(-c3ccc(F)cc3)nn2n1`, the inhibition is 2% and 1% in assay [1]; -1% and 0% in assay [2]; 5% in assay [3].

`CCc1ccc(Oc2nccc(-c3c(-c4ccc(F)cc4)ncn3C3CCNCC3)n2)cc1`: the inhibition is 3% and 2% in assay [1]; -3% and -4% in assay [2]; -6% in assay [3].

Turning to `CCCN1CCC(c2ccc(Nc3nc(Nc4cc(F)ccc4C(N)=O)c4cc[nH]c4n3)c(OC)c2)CC1`, the inhibition in assay [1] is 3% and 0%; in assay [2], 8% and 6%; in assay [3], 5%.

Turning to `Cc1cccc(-c2n[nH]cc2-c2ccc3ncccc3n2)n1`, the inhibition in assay [1] is 2% and 4%; in assay [2], -4%; in assay [3], -6%.

On to `CS(=O)(=O)CCNCc1ccc(-c2ccc3ncnc(Nc4ccc(OCc5ccccc5)c(C(F)(F)F)c4)c3c2)o1`, for which the inhibition is 1% and -1% in assay [1]; -2% and -1% in assay [2]; -2% in assay [3].

In the case of `COc1ccc2[nH]c3c4[nH]c5ccc(OC)cc5c4c4c(c3c2c1)C(=O)NC4=O`, the inhibition was 12% and 13% in assay [1]; 21% and 20% in assay [2]; 5% in assay [3].

Take `CS(=O)(=O)CCNCc1ccc(-c2ccc3ncnc(Nc4ccc(OCc5ccccc5)c(Cl)c4)c3c2)o1`: the inhibition in assay [1] is 8% and 2%; in assay [2] it was 1% and -3%; in assay [3] it was 89%.

As to `Nc1nc(-c2ccc3c(c2)C(=Cc2cc(Br)c(O)c(Br)c2)C(=O)N3)cs1`, the inhibition in assay [1] was 4% and 2%; in assay [2], 8% and 6%; in assay [3], -8%.

On to `NS(=O)(=O)c1ccc(Nc2ncc(-c3ccccc3)o2)cc1`, for which the inhibition in assay [1] is 4% and 3%; in assay [2], 2% and 3%; in assay [3], 2%.

In the case of `COc1cc(Nc2ncc(-c3ccccc3)o2)cc(OC)c1OC`, the inhibition in assay [1] is 1% and 0%; in assay [2], 17% and 13%; in assay [3], 68%.

As for `COC(=O)c1ccc2c(c1)C(=Cc1cc(Br)c(O)c(Br)c1)C(=O)N2`, the inhibition in assay [1] was -7%; in assay [2], 51% and 52%; in assay [3], 5%.
